Results reported in the supplement of paper PMC5412046.
Where a name gives a salt, the structure may show the parent alone.

What was measured:
[1] = test system: SB.msgc-1; test: area under the dose-response curve of % viability (trapezoidal, 11 doses) (% viability x log10 concentration); higher = less cytotoxic; conditions: SB.msgc-1 (sporadic gastric cancer)
In short: (§1)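 Viability, normalised to DMSO, is listed either at the highest concentration or as trapezoidal area under the curve. It was measured in patient-derived gastric cancer cells, hereditary or sporadic, exposed for 48 h to 11 threefold-diluted compound concentrations and then assayed with CellTiter-Glo luminescence.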

[2] = test system: SB.mhdgc-1; test: as above; conditions: SB.mhdgc-1 (hereditary c.1380delA CDH1 gastric cancer)
In short: as §1

[3] = test system: SB.msgc-1; test: viability at highest tested concentration (MAXR) relative to DMSO; higher = less cytotoxic; conditions: SB.msgc-1 (sporadic gastric cancer)
In short: as §1

[4] = test system: SB.mhdgc-1; test: as above; conditions: SB.mhdgc-1 (hereditary c.1380delA CDH1 gastric cancer)
In short: as §1

Row | SMILES | area under the dose-response curve [1] | area under the dose-response curve [2] | viability [3] [%] | viability [4] [%]
1 | CN(C)c1ccc(C(=O)NCCCCCCC(=O)NO)cc1 [M344] (top concentration 46.0829 µM) | 309 | 363 | 2.11 | 2.75
2 | CCOC\1=C(/C(=O)NC2=CC=C(OC3=C(Cl)C(=NC=C3)N)C(=C2)F)C(=O)N(\C=C1)C4=CC=C(F)C=C4 (top concentration 46.0829 µM) | 512 | 562 | 59.8 | 68.7
3 | O=C(CCCCCCNC(=O)c1cnc(N(c2ccccc2)c2ccccc2)nc1)NO [ACY-1215] (top concentration 46.0829 µM) | 421 | 474 | 4.17 | 39.2
4 | CC1(C)O[C@@H]2C[C@H]3[C@@H]4CCC5=CC(=O)C=C[C@]5(C)[C@H]4[C@@H](O)C[C@]3(C)[C@]2(C(=O)CO)O1 [Desonide] (top concentration 46.0829 µM) | 523 | 508 | 108 | 111
5 | Cc1nn(Cc2ccccc2Cl)c(C)c1CN(C)CC(O)COc1ccc(Cl)cc1 (stereo unspecified) (top concentration 46.0829 µM) | 529 | 519 | 58.7 | 4.77
6 | Clc1ccccc1C(c1ccccc1)(c1ccccc1)n1ccnc1 [Clotrimazole] (top concentration 46.0829 µM) | 525 | 527 | 64.8 | 72.4
7 | CN(C)C(=O)COC(=O)Cc1ccc(OC(=O)c2ccc(NC(=N)N)cc2)cc1 [Camostat mesylate] (top concentration 46.0829 µM) | 507 | 389 | 101 | 44.7
8 | CN[C@@H]1[C@@H](O)[C@@H](O[C@@H]2[C@@H](O)[C@H](O[C@H]3O[C@H](CN)[C@@H](O)[C@H](O)[C@H]3O)[C@@H](N)C[C@H]2NC(=O)[C@@H](O)CN)OC[C@]1(C)O [Isepamicin] (top concentration 46.0829 µM) | 530 | 535 | 99.2 | 101
9 | CCN(CC)CCOC1=CC=C(NC2=NC=C3\C=C(/C(=O)N(C)C3=N2)C4=C(Cl)C=CC=C4Cl)C=C1 (top concentration 46.0829 µM) | 400 | 428 | 29.6 | 3.62
10 | CN(C)CC[C@H](c1ccc(Cl)cc1)c1ccccn1 [Chlorphenamine maleate] (top concentration 46.0829 µM) | 326 | 464 | 49.2 | 82.7
11 | CN(C)CCc1c[nH]c2ccc(C[C@H]3COC(=O)N3)cc12 [Zolmitriptan] (top concentration 46.0829 µM) | 569 | 552 | 102 | 68.4
12 | CC/C(=C(/c1ccc(O)cc1)c1ccc(OCCNC)cc1)c1ccccc1 [Endoxifen] (top concentration 46.0829 µM) | 522 | 352 | 34.5 | 4.91
13 | CCOC(=O)N1CCN(/[N+]([O-])=N/Oc2ccc([N+](=O)[O-])cc2C#N)CC1 [JS-59-4] (top concentration 46.0829 µM) | 495 | 418 | 50.7 | 4.29
14 | OC1=CC2=C(C(=O)\C=C(/O2)C3=CC=CC=C3)C(=C1O)O [Baicalein] (top concentration 46.0829 µM) | 523 | 566 | 75.8 | 97
15 | COc1cc2nccc(Oc3ccc(NC(=O)NC4CC4)c(Cl)c3)c2cc1C(N)=O [Lenvatinib] (top concentration 46.0829 µM) | 474 | 399 | 48.1 | 3.75
16 | Cc1cccc(C)c1NC(=O)CN1CCCC1=O [Nefiracetam] (top concentration 46.0829 µM) | 545 | 466 | 111 | 92.8
17 | CC1CNc2c(cccc2[S+](=O)([O-])N[C@@H](CCCNC(=N)N)C(=O)N2CC[C@@H](C)C[C@@H]2C(=O)O)C1 (stereo partly specified) [Argatroban] (top concentration 46.0829 µM) | 525 | 402 | 49.1 | 18.3
18 | C#C[C@]1(O)CC[C@H]2[C@@H]3CCc4cc(OC)ccc4[C@H]3CC[C@@]21C [Mestranol] (top concentration 46.0829 µM) | 486 | 607 | 32.4 | 65.3
19 | CNC(=O)c1cc(COc2nnc(Nc3ccc(Cl)cc3)c3ccoc23)ccn1 [Telatinib] (top concentration 46.0829 µM) | 512 | 564 | 59.4 | 55.6
